Experimental data taken from ChEMBL document CHEMBL1201862, “PubChem BioAssay data set” (2004).
Several values for one entry are separate records, joined by “and”; a condition that tells them apart may be missing. Equal values may be shown once.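 Compound exposure: 48 hours, 5 concentrations, 96-well plates. GI50: concentration for 50% inhibition of growth.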 Activity calls are given as the source filed them. No stated cut-off is given here; in the data, active = GI50 up to about 1.1 µM and inactive = higher.

How the values were obtained:
Experiment in all cases: NCI-60 cell line screen, 48 h
HCT-15 = test system: HCT-15
SR = test system: SR
NCI/ADR-RES = test system: NCI/ADR-RES
OVCAR-3 = test system: OVCAR-3
OVCAR-4 = test system: OVCAR-4
BT-549 = test system: BT-549
COLO 205 = test system: COLO 205
UO-31 = test system: UO-31
U-251 = test system: U-251
MCF7 = test system: MCF7
PC-3 = test system: PC-3
KM12 = test system: KM12
NCI-H460 = test system: NCI-H460
SN12C = test system: SN12C
RPMI-8226 = test system: RPMI-8226
786-0 = test system: 786-0
NCI-H23 = test system: NCI-H23
MDA-N = test system: MDA-N
T47D = test system: T47D
IGROV-1 = test system: IGROV-1
MDA-MB-435 = test system: MDA-MB-435
ACHN = test system: ACHN
SF-539 = test system: SF-539
UACC-62 = test system: UACC-62
MDA-MB-231 = test system: MDA-MB-231
HT-29 = test system: HT-29
DU-145 = test system: DU-145
A549 = test system: A549
SNB-75 = test system: SNB-75
NCI-H522 = test system: NCI-H522
A498 = test system: A498
SF-268 = test system: SF-268
M14 = test system: M14
Hs-578T = test system: Hs-578T
MOLT-4 = test system: MOLT-4
UACC-257 = test system: UACC-257
TK-10 = test system: TK-10
SW-620 = test system: SW-620
SK-MEL-28 = test system: SK-MEL-28
SK-OV-3 = test system: SK-OV-3
SF-295 = test system: SF-295
HOP-92 = test system: HOP-92
HOP-62 = test system: HOP-62
LOX IMVI = test system: LOX IMVI
HL-60 = test system: HL-60
K562 = test system: K562
RXF 393 = test system: RXF 393
NCI-H226 = test system: NCI-H226
CCRF-CEM = test system: CCRF-CEM
HCC 2998 = test system: HCC 2998
Malme-3M = test system: Malme-3M
OVCAR-8 = test system: OVCAR-8
EKVX = test system: EKVX
HCT-116 = test system: HCT-116
SK-MEL-2 = test system: SK-MEL-2
SK-MEL-5 = test system: SK-MEL-5
CAKI-1 = test system: CAKI-1
SNB-19 = test system: SNB-19
OVCAR-5 = test system: OVCAR-5

[N-]=[N+]=Nc1cc(=O)[nH]nc1-c1ccccc1
GI50 (HCT-15): > 100 µM
GI50 (SR): > 100 µM (inactive)
GI50 (NCI/ADR-RES): > 100 µM (inactive)
GI50 (OVCAR-3): > 100 µM (inactive)
GI50 (OVCAR-4): > 100 µM (inactive)
GI50 (BT-549): > 100 µM (inactive)
GI50 (COLO 205): > 100 µM (inactive)
GI50 (UO-31): > 100 µM (inactive)
GI50 (U-251): > 100 µM (inactive)
GI50 (MCF7): > 100 µM (inactive)
GI50 (PC-3): > 100 µM (inactive)
GI50 (KM12): > 100 µM (inactive)
GI50 (NCI-H460): > 100 µM (inactive)
GI50 (SN12C): > 100 µM (inactive)
GI50 (RPMI-8226): > 100 µM (inactive)
GI50 (786-0): > 100 µM (inactive)
GI50 (NCI-H23): > 100 µM (inactive)
GI50 (MDA-N): > 100 µM (inactive)
GI50 (T47D): > 100 µM (inactive)
GI50 (IGROV-1): > 100 µM (inactive)
GI50 (MDA-MB-435): > 100 µM (inactive)
GI50 (ACHN): > 100 µM (inactive)
GI50 (SF-539): > 100 µM (inactive)
GI50 (UACC-62): > 100 µM (inactive)
GI50 (MDA-MB-231): > 100 µM (inactive)
GI50 (HT-29): > 100 µM (inactive)
GI50 (DU-145): > 100 µM (inactive)
GI50 (A549): > 100 µM (inactive)
GI50 (SNB-75): 61.4 µM (inactive)
GI50 (NCI-H522): > 100 µM (inactive)
GI50 (A498): > 100 µM (inactive)
GI50 (SF-268): > 100 µM (inactive)
GI50 (M14): > 100 µM (inactive)
GI50 (Hs-578T): > 100 µM (inactive)
GI50 (MOLT-4): > 100 µM (inactive)
GI50 (UACC-257): > 100 µM (inactive)
GI50 (TK-10): > 100 µM (inactive)
GI50 (SW-620): > 100 µM (inactive)
GI50 (SK-MEL-28): > 100 µM (inactive)
GI50 (SK-OV-3): > 100 µM (inactive)
GI50 (SF-295): > 100 µM (inactive)
GI50 (HOP-92): > 100 µM (inactive)
GI50 (HOP-62): > 100 µM (inactive)
GI50 (LOX IMVI): > 100 µM (inactive)
GI50 (HL-60): > 100 µM (inactive)
GI50 (K562): > 100 µM (inactive)
GI50 (RXF 393): > 100 µM (inactive)
GI50 (NCI-H226): > 100 µM (inactive)
GI50 (CCRF-CEM): > 100 µM (inactive)
GI50 (HCC 2998): > 100 µM (inactive)
GI50 (Malme-3M): > 100 µM (inactive)
GI50 (OVCAR-8): > 100 µM (inactive)
GI50 (EKVX): > 100 µM (inactive)
GI50 (HCT-116): > 100 µM (inactive)

COC1OC(C(=O)CP(=O)(OC)OC)C(OCc2ccccc2)C(OCc2ccccc2)C1OCc1ccccc1 (configuration not stated)
GI50 (HCT-15): 15.5 µM and 17.7 µM
GI50 (SR): 16.4 µM (inactive) and 25.4 µM (inactive)
GI50 (NCI/ADR-RES): 18.9 µM (inactive) and 16.4 µM (inactive)
GI50 (OVCAR-3): 15.6 µM (inactive) and 15.1 µM (inactive)
GI50 (OVCAR-4): 14.7 µM (inactive) and 20.7 µM (inactive)
GI50 (BT-549): 17.9 µM (inactive) and 19.5 µM (inactive)
GI50 (COLO 205): 18.5 µM (inactive) and 18.2 µM (inactive)
GI50 (UO-31): 11.2 µM (inactive) and 17.1 µM (inactive)
GI50 (U-251): 16.7 µM (inactive) and 15.6 µM (inactive)
GI50 (MCF7): 16.4 µM (inactive)
GI50 (PC-3): 15.4 µM (inactive) and 14.2 µM (inactive)
GI50 (SK-MEL-2): 16.5 µM (inactive) and 17.1 µM (inactive)
GI50 (KM12): 18.7 µM (inactive) and 18.9 µM (inactive)
GI50 (NCI-H460): 15 µM (inactive) and 15.9 µM (inactive)
GI50 (SN12C): 16.4 µM (inactive)
GI50 (786-0): 17.6 µM (inactive) and 17.3 µM (inactive)
GI50 (NCI-H23): 15.9 µM (inactive) and 17.5 µM (inactive)
GI50 (MDA-N): 16.3 µM (inactive) and 17.1 µM (inactive)
GI50 (T47D): 18 µM (inactive) and 15.5 µM (inactive)
GI50 (IGROV-1): 18.3 µM (inactive) and 18.9 µM (inactive)
GI50 (MDA-MB-435): 18.7 µM (inactive) and 17 µM (inactive)
GI50 (ACHN): 16.4 µM (inactive) and 15.9 µM (inactive)
GI50 (SF-539): 17.3 µM (inactive) and 16.9 µM (inactive)
GI50 (UACC-62): 13.7 µM (inactive) and 14.8 µM (inactive)
GI50 (MDA-MB-231): 15.9 µM (inactive) and 16.7 µM (inactive)
GI50 (HT-29): 17.2 µM (inactive) and 16 µM (inactive)
GI50 (DU-145): 17.9 µM (inactive) and 16.5 µM (inactive)
GI50 (A549): 15.3 µM (inactive) and 15.5 µM (inactive)
GI50 (SNB-75): 14.6 µM (inactive) and 16 µM (inactive)
GI50 (NCI-H522): 14.5 µM (inactive) and 16 µM (inactive)
GI50 (A498): 14.1 µM (inactive)
GI50 (SK-MEL-5): 14.8 µM (inactive) and 15 µM (inactive)
GI50 (SF-268): 16.9 µM (inactive) and 17.7 µM (inactive)
GI50 (M14): 15.3 µM (inactive) and 16.6 µM (inactive)
GI50 (Hs-578T): 25.6 µM (inactive) and 22.1 µM (inactive)
GI50 (MOLT-4): 13 µM (inactive) and 20.8 µM (inactive)
GI50 (UACC-257): 16.5 µM (inactive) and 15.7 µM (inactive)
GI50 (TK-10): 17.1 µM (inactive) and 18.8 µM (inactive)
GI50 (SW-620): 20.7 µM (inactive) and 34.3 µM (inactive)
GI50 (SK-MEL-28): 16.9 µM (inactive) and 21 µM (inactive)
GI50 (SK-OV-3): 18.1 µM (inactive) and 17.9 µM (inactive)
GI50 (SF-295): 16.5 µM (inactive) and 14.5 µM (inactive)
GI50 (HOP-92): 17.9 µM (inactive) and 19.1 µM (inactive)
GI50 (HOP-62): 17.2 µM (inactive) and 18 µM (inactive)
GI50 (LOX IMVI): 17.7 µM (inactive) and 17.2 µM (inactive)
GI50 (HL-60): 21.8 µM (inactive) and 18.7 µM (inactive)
GI50 (CAKI-1): 16.3 µM (inactive) and 19.6 µM (inactive)
GI50 (K562): 31 µM (inactive) and 17.9 µM (inactive)
GI50 (RXF 393): 14.8 µM (inactive) and 12.1 µM (inactive)
GI50 (NCI-H226): 19.2 µM (inactive) and 18.8 µM (inactive)
GI50 (CCRF-CEM): 33.1 µM (inactive) and 25.1 µM (inactive)
GI50 (SNB-19): 15.9 µM (inactive) and 16.3 µM (inactive)
GI50 (HCC 2998): 16.2 µM (inactive) and 17.3 µM (inactive)
GI50 (Malme-3M): 17.9 µM (inactive) and 19.2 µM (inactive)
GI50 (OVCAR-8): 19.8 µM (inactive) and 17.9 µM (inactive)
GI50 (OVCAR-5): 15.4 µM (inactive) and 17.4 µM (inactive)
GI50 (EKVX): 15 µM (inactive) and 16.9 µM (inactive)
GI50 (HCT-116): 16.6 µM (inactive) and 15.5 µM (inactive)
